Measured values as given in publication PMC9788182, “Natural Compounds as Non-Nucleoside Inhibitors of Zika Virus Polymerase through Integration of In Silico and In Vitro Approaches” (Pharmaceuticals, 2022).
Where two headings read alike, the source gives them in different places.

Key:
SARS-CoV-2 RdRp = test system: SARS-CoV-2 RdRp; parameters: method as in PMID 35732785; settings: cited from earlier work
DENV1 RdRP = test system: DENV1 RdRP; parameters: method as in earlier work; settings: ref 49 (13), ref 8 (14), ref 24 (15); cited from earlier work
DENV2 RdRP = test system: DENV2 RdRP; parameters: method as in earlier work; settings: ref 49 (13), ref 8 (14), ref 24 (15); cited from earlier work
DENV3 RdRP = test system: DENV3 RdRP; parameters: method as in earlier work; settings: ref 49 (13), ref 8 (14), ref 24 (15); cited from earlier work
DENV4 RdRP = test system: DENV4 RdRP; parameters: method as in earlier work; settings: ref 49 (13), ref 8 (14), ref 24 (15); cited from earlier work
ZIKV NS5 RdRp = ZIKV NS5 RdRp (Zika virus, UniProt Q32ZE1); assay: ZIKV NS5-RdRp activity assays (endpoint and concentration-response); format: biochemical; settings: for inhibition at 20 µM: endpoint assay at 20 µM, read-out: inhibitory activity against ZIKV RdRp
Chain of ZIKV NS5 RdRp (Q32ZE1 2822-3419): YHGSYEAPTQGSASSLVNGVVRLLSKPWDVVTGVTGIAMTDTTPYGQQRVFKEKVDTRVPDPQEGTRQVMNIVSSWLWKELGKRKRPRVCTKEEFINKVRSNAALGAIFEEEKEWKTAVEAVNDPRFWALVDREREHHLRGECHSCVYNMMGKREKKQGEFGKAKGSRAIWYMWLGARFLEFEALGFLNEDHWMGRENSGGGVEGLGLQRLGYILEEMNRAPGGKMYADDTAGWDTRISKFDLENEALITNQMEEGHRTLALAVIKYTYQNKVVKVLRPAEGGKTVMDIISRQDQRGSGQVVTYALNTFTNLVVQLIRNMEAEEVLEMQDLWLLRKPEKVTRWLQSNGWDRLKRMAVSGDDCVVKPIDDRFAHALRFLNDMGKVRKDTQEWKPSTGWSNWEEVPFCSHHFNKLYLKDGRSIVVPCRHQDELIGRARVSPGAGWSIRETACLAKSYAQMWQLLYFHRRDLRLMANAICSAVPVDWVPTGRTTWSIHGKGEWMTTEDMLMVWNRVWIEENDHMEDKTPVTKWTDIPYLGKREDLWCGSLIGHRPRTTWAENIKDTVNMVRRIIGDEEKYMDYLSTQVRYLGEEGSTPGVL
Description: Nine prioritized hits were submitted to endpoint assay at 20 µM to verify their inhibitory activity against ZIKV RdRp. […] Pedalitin and quercetin were the only ones with activity greater than 80%, with inhibitory activity of 97% and 99%, respectively, and consequently were selected for the concentration-response assays.
We then investigated ZIKV RdRp activity in the presence of pedalitin and quercetin.
ZIKV NS5-RdRp activity assays were performed as described by Fernandes and coworkers. The endpoint assays were performed at 20 μM, and the compounds that inhibited more than 80% of activity in this assay were submitted to a concentration-response test. The concentration-responses assays were performed as described in [94]. In all cases, the percentage inhibition values were calculated based on a control reaction, containing only DMSO in the same concentrations used for the tested compounds. The results were analyzed and plotted using the GraphPad Prism v. 8.0 program.

ZIKV^BR = assay: Antiviral assay, Vero cells infected with ZIKV^BR, foci by immunofluorescence; format: cell-based, Zika virus; settings: for SI (selectivity index): SI = CC50/EC50, Vero cells; for EC50: Zika virus, read-out: EC50 ZIKV
Description: The anti-ZIKV activities of the pedalitin and quercetin were further investigated through the employment of Vero cells infected with ZIKV wild type (ZIKV^BR) (Figure 6). […] Vero cells were infected with ZIKV^BR and simultaneously treated with pedalitin or quercetin at concentrations ranging from 200 µM to 0.005 µM for 72 h when viral replication rates were assessed (Figure 6). Cell viability analysis was performed in parallel (Figure 6).
Vero cells were seeded at density of 5 × 10^3 cells per well into 96-well plates 24 h prior to the infection. ZIKV-WT^BR at a multiplicity of infection (MOI) of 0.1 and compound at concentrations ranging from 200 to 0.005 µM were simultaneously added to cells. 72 h post-infection (h.p.i.), cells were fixed with paraformaldehyde 4%, washed with PBS and blocking buffer (BB) containing: 0.1% Triton X-100 (Vetec Labs, PR, BR), 0.2% bovine albumin (BSA) and PBS for 30 min. Then, cells were incubated with primary rabbit polyclonal anti-NS3 antibody diluted in BB for 1 h. Alexa Fluor 488 conjugated anti-rabbit IgG was used as secondary antibody (Abcam, Cambridge, UK). Images were analyzed by EVO cell imaging systems fluorescence microscopy (Thermo Fisher Scientific, OH, USA) and foci of infection were counted. The antiviral activity was calculated according to the equation (T/C) × 100%, where T and C represent the mean of the treated group and mean of the […], respectively. […] 8. The values of CC50 and EC50 were used to calculate the selectivity index (SI = CC50/EC50).

Cell viability, MTT = format: cell-based; settings: African green monkey, Vero cells
Description: Cell viability was measured by the MTT [3-(4,5-dimethylthiazol-2-yl)-2,5-diphenyl tetrazolium bromide] (Sigma–Aldrich) method. Vero cells were seeded in a 96-well plate at a density of 5 × 10^3 cells per well and incubated overnight at 37 °C in a humidified 5% CO2 incubator. A drug-containing medium at concentrations ranging from 200 to 0.005 µM was added to the cell culture. After 72 h at 37 °C, the media was removed and a solution containing MTT at the final concentration of 1 mg/mL was added to each well and incubated for 30 min at 37 °C in a humidified 5% CO2 incubator, after which media was replaced with 100 μL of DMSO to solubilize the formazan crystals. Absorbance was measured by the optical density (OD) of each well at 490 nm, using a spectrophotometer. Cell viability was calculated according to the equation (T/C) × 100%, where T and C represent the mean optical density of the treated group and vehicle control group, respectively. […] 8 [95].

DENV-2 virus = test system: DENV-2 virus; parameters: method as in PMID 22201648; settings: Vero cells, cited from earlier work
ZIKV = test system: ZIKV; parameters: method as in PMID 30392049; settings: Vero cells; cited from earlier work
DENV RdRP = settings: ref 31 (10), ref 21 (11), ref 30 (12); cited from earlier work
ZIKV RdRp [1] = test system: ZIKV RdRp; parameters: method as in PMID 28098253; settings: cited from earlier work
ZIKV RdRp [2] = test system: ZIKV RdRp; parameters: method as in PMID 31310806; settings: cited from earlier work
[3] = test system: Japanese encephalitis virus (JEV); settings: cited from earlier work
DENV-2 = test system: DENV-2; parameters: method as in PMID 34126315, PMID 24965553; settings: read-out: DENV2 EC50; cited from earlier work

In the case of `O=c1cc(-c2ccc(O)c(O)c2)oc2cc(O)cc(O)c12` [luteolin], the IC50 (SARS-CoV-2 RdRp) is listed as 4.6 µM.
In the case of `O=C(Cc1ccccc1Nc1c(Cl)cccc1Cl)NC1(C(=O)O)Cc2ccccc2C1` [Compound 13, bis-chloro-diphenylamine, 2-aminoindan-2-carboxyl derivative], the IC50 (DENV1 RdRP) is listed as 6.6 ± 1.3 µM, the IC50 (DENV2 RdRP) is listed as 16.5 ± 1.8 µM and the IC50 (DENV3 RdRP) is listed as 12.8 ± 1.3 µM. The IC50 (DENV4 RdRP) was 6.1 ± 1 µM.
With `O=c1c(O)c(-c2ccc(O)c(O)c2)oc2cc(O)cc(O)c12` [Compound 9, Quercetin] the IC50 (ZIKV NS5 RdRp; concentration-response, 80 µM to 0.156 µM, read-out: IC50 ZIKV RdRp) was 0.5 ± 0.1 µM, the inhibition at 20 µM (ZIKV NS5 RdRp) was 99% and the “SI (selectivity index)” value (ZIKV^BR) was 2.03. For the same compound, the EC50 (ZIKV^BR; Vero cells, ZIKV^BR MOI 0.1, 72 h, 200 to 0.005 µM) was 17.7 µM, the CC50 at 72 h (Cell viability, MTT) was 36 µM and the IC50 (SARS-CoV-2 RdRp) was 6.9 µM. For the same compound, the EC50 (DENV-2 virus; administration after viral adsorption) was 95.6 µM and the “reduction of DENV-2 replication” value (DENV-2 virus; concentration of 165.4 µM) was 67%.
In the case of `COc1cc(C)c(C(=O)NS(=O)(=O)c2cccc3cccnc23)cc1-c1ccc(C#CCO)s1` [Compound 15, 5-(5-(3-Hydroxyprop-1-yn-1-yl)thiophen-2-yl)-4-methoxy-2-methyl-N-(quinolin-8-ylsulfonyl)benzamide], the IC50 (DENV1 RdRP) is listed as 0.013 µM, the IC50 (DENV2 RdRP) is listed as 0.038 µM and the IC50 (DENV3 RdRP) is listed as 0.016 µM. For the same compound, the IC50 (DENV4 RdRP) was 0.023 ± 0.01 µM.
In the case of `COc1cc2oc(-c3ccc(O)c(O)c3)cc(=O)c2c(O)c1O` [Compound 8, Pedalitin], the IC50 (ZIKV NS5 RdRp) is reported as 4.1 ± 0.3 µM, the inhibition at 20 µM (ZIKV NS5 RdRp) is reported as 97% and the “SI (selectivity index)” value (ZIKV^BR) is reported as 4.34. For the same compound, the EC50 (ZIKV^BR; Vero, 72 h) was 19.3 µM and the CC50 at 72 h (Cell viability, MTT) was 83.7 µM.
In the case of `O=C(O)[C@H]1O[C@@H](Oc2cc3oc(-c4ccccc4)cc(=O)c3c(O)c2O)[C@H](O)[C@@H](O)[C@@H]1O` [Compound 19, baicalin], the EC50 (ZIKV) is listed as 14 µM.
For `COc1cc(O)c2c(=O)c(O)c(-c3ccc(O)c(O)c3)oc2c1` [Compound 12, rhamnetin], the IC50 (DENV RdRP) is given as 2.2 ± 0.2 µM.
In the case of `O=C(O)CCCC(/C=C/c1ccccc1)c1c(O)c(C(CCCC(=O)O)CCc2ccccc2)c(O)c2c(=O)cc(-c3ccccc3)oc12` (stereo not drawn) [Compound 11, chartaceone D], the IC50 (DENV RdRP) is listed as 1.8 ± 1.2 µM.
In the case of `CC(C)OC(=O)[C@H](C)N[P@](=O)(OC[C@H]1O[C@@H](n2ccc(=O)[nH]c2=O)[C@](C)(F)[C@@H]1O)Oc1ccccc1` [Sofosbuvir, sofosbuvir], the IC50 (ZIKV RdRp [1]) is given as 0.38 ± 0.03 µM.
In the case of `COc1cccc(S(=O)(=O)NC(=O)c2cc(-c3ccc(C#CCO)s3)c(OC)cc2OC)c1` [Compound 14, 5-(5-(3-Hydroxyprop-1-yn-1-yl)thiophen-2-yl)-2,4-dimethoxy-N-((3-methoxyphenyl)sulfonyl)benzamide], the IC50 (DENV1 RdRP) is given as 0.068 µM, the IC50 (DENV2 RdRP) is given as 0.106 µM and the IC50 (DENV3 RdRP) is given as 0.048 µM. For the same compound, the IC50 (DENV4 RdRP) was 0.172 ± 0.097 µM.
In the case of podocarpusflavone A [Compound 10], the IC50 (DENV RdRP) is listed as 0.16 ± 0.02 µM.
In the case of `C=CCCCCCCCCC(=O)O` [Compound 17, undecylenic acid], the EC50 (ZIKV RdRp [2]) is listed as 7.43 µM.
For `O=c1cc(-c2ccccc2)oc2cc(O)c(O)c(O)c12` [Compound 18, baicalein], the EC50 (ZIKV) is listed as 0.004 µM, the “JEV ED50” value ([3]; Figure 4) is listed as 27 µM and the EC50 [3] is listed as 27 ± 4 µM. The EC50 (DENV-2) was 55.1 µM.
